Experimental data as given in US4505853A, “Enzyme-resistant immunomodulatory peptides” (Ortho Pharmaceutical Corporation, priority 1983, dated 1985).
Where a SMILES comes first, the peptide text is derived from it. Where no end group is shown, it is not given here. [ ]: non-standard residue; d: D form. The star is where a group is joined. Ac5c = NC1(C(=O)O)CCCC1; For = O=C*

Columns and labels:
[1] = tested on: Leucine Amino Peptidase (LAP); test: Leucine Amino Peptidase (LAP) Degradation, amino acid analysis; assay type: in vitro ADME; conditions: Asp, Pro, Val, Tyr, Arg all 0.00
Source text: Leucine Amino Peptidase (LAP) Degradation Asp, 0.00; Pro, 0.00; Val, 0.00; Tyr, 0.00; Arg.

[2] = tested on: thymopoeitin receptor site (membrane glycoprotein of CEM cells); conditions: 2.3×10^-10 M of 125I-TP, 4 g of binding protein, incubation 12 h
[3] = target: T1, porcine LAPcytosol (Leucine Aminopeptidase) (Sus scrofa, UniProt P28839); test: Stability of peptides against leucine aminopeptidase; assay type: in vitro ADME; conditions: 1 × 10^-3 M peptide and 3 units/ml porcine LAPcytosol in 50 mM Tris pH 8.5 buffer with 5 mM MgCl2 at 37°
T1 sequence (P28839 1-519): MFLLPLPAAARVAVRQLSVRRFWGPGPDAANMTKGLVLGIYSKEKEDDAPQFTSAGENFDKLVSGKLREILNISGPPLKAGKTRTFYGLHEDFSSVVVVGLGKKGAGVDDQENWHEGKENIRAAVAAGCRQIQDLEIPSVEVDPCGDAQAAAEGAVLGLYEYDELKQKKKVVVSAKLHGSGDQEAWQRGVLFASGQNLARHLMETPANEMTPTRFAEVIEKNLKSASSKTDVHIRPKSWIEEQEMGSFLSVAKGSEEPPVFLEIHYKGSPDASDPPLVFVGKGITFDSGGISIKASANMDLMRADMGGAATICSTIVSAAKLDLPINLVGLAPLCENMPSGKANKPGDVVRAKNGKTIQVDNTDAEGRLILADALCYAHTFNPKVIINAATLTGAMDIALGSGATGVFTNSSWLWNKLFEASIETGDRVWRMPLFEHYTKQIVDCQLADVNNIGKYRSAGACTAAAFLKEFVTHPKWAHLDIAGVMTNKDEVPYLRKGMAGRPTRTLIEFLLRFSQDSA
Procedure: (§1) It has been determined that the half-life of thymopentin (thymopoeitin fragment 32-36) in serum is approximately one minute.
*1 × 10^-3 M peptide and 3 units/ml porcine LAPcytosol in 50 mM
Tris pH 8.5 buffer with 5 mM MgCl2 at 37°

[4] = Stability of peptides against human serum; assay type: in vitro ADME; conditions: 1 μg/ml peptide in fresh human serum at 37°
Procedure: as §1
*1 μg/ml peptide in fresh human serum at 37°

[5] = target: T2, bovine carboxypeptidase A (Bos taurus, UniProt P00730); test: Stability of peptides against carboxypeptidase A; assay type: in vitro ADME; conditions: 1 × 10^-3 M peptide and 0.05 units/ml bovine carboxypeptidase in pH 8.5 borate buffer at 37°
T2 sequence (P00730 111-419): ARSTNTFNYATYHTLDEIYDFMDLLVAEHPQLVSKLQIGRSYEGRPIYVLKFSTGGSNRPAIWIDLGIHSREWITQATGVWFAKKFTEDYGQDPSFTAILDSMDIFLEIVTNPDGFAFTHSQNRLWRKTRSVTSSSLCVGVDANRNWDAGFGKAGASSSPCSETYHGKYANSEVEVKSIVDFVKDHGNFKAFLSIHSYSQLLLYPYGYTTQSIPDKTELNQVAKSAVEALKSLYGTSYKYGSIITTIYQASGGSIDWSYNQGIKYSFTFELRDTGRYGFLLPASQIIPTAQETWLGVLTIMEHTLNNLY
Procedure: as §1
*1 × 10^-3 M peptide and 0.05 units/ml bovine carboxypeptidase
in pH 8.5 borate buffer at 37°

[6] = Enzymatic degradation / half-life in serum; assay type: in vitro ADME
Source text: as §1

[7] = tested on: Prothymocytes (Thy-1^-); test: Induction assay, Thy-1+ T cells; assay type: cell-based; conditions: B6-lyb-2.1 congenic mouse spleen cells, 3 hrs with inducer; controls without inducer <5% induced cells
Procedure: (§2) The compounds of the invention were tested following the induction assay procedure set out in Scheid, et al., J. Exp. Med. 147: 1727-1743 (1978) and also following a receptor assay procedure designed to measure displacement of radiolabelled thymopoeitin from a receptor site by the test peptides. A positive result on the induction assay indicates the ability of the test peptide to mimic the ability of thymopoeitin or splenin to induce precursor cells to immunocompetent T cells or T cells and B cells, respectively. A positive result on the receptor assay indicates the ability of the test peptide to bind to the thymopoeitin receptor site and thus to mimic thymopoeitin activity. The subject peptides are positive in the induction assay, while those in which X is ASP or D-ASP are also positive in the receptor assay.
(§3) The peptides of the invention wherein X is ASP or D-ASP are characterized by their ability to induce the selective differentiation of Thy-1^+ T cells (but not Lyb-2^+ B cells). Thy-1 is a differentiation alloantigen present on T cells but not B cells, whereas Lyb-2 is a differentiation alloantigen present on B cells but not T cells. Studies of these peptides in the induction assay in vitro show them to have the same induction specificity as thymopoietin. […]

[8] = tested on: pro-Lyb-2 cells; test: Induction assay, Lyb-2+ B cells; assay type: cell-based; conditions: B6-lyb-2.1 congenic mouse spleen cells, 3 hrs with inducer; controls without inducer <5% induced cells
Procedure: as §2, §3

For `CC(=O)N[C@@H](CCCNC(=N)N)C(=O)N1CCC[C@H]1C(=O)N[C@@H](CC(=O)O)C(=O)N[C@H](C(=O)N[C@H](Cc1ccc(O)cc1)C(=O)O)C(C)C` [IX, Nα-Acetyl-Arginyl-Prolyl-Aspartyl-Valyl-D-Tyrosine] (Ac-RPDV[dY]-OH), the “amino acids liberated by Leucine Amino Peptidase (LAP)” value [1] was “no liberated amino acids were detected”.

For `CNC(=O)[C@H](Cc1ccc(O)cc1)NC(=O)[C@@H](NC(=O)[C@H](CC(=O)O)NC(=O)[C@@H]1CCCN1C(=O)[C@H](CCCNC(=N)N)NC(C)=O)C(C)C` [N-α-acetyl-ARG-PRO-ASP-VAL-TYR-NHCH3, Nα-Acetyl-Arginyl-Prolyl-Aspartyl-Valyl-Tyrosine-N-Methylamide] (Ac-RPDVY-NHMe), the “displacement of 125I-TP relative to that caused by thymopoietin self-displacement at equivalent concentrations” value [2] was at least 50%.

In the case of `CC(C)[C@H](NC(=O)[C@H](CC(=O)O)NC(=O)[C@@H]1CCCN1C(=O)[C@H](CCCNC(=N)N)NC=O)C(=O)N[C@@H](Cc1ccc(O)cc1)C(=O)O` [N-α-formyl-ARG-PRO-ASP-VAL-TYR-OH, N^α -Formyl-Arginyl-Prolyl-Aspartyl-Valyl-Tyrosine] (For-RPDVY-OH), the “displacement of 125I-TP relative to that caused by thymopoietin self-displacement at equivalent concentrations” value [2] is reported as at least 50%.

For `CC(C)[C@H](NC(=O)[C@H](CC(=O)O)NC(=O)C1(NC(=O)[C@@H](N)CCCNC(=N)N)CCCC1)C(=O)N[C@@H](Cc1ccc(O)cc1)C(=O)O` [NH2 --Arg--Cle--Asp--Val--Tyr--OH, Arginyl-Cycloleucyl-Aspartyl-Valyl-Tyrosine] (H-R[Ac5c]DVY-OH), the “Incubation time required for 50% degradation” value [3] was over 1400 min.

For `C[C@H](N)C(=O)NCC(=O)N[C@H]1CSSC[C@@H](C(=O)O)NC(=O)[C@H](CO)NC(=O)[C@H]([C@@H](C)O)NC(=O)[C@H](Cc2ccccc2)NC(=O)[C@H]([C@@H](C)O)NC(=O)[C@H](CCCCN)NC(=O)[C@H](Cc2c[nH]c3ccccc23)NC(=O)[C@H](Cc2ccccc2)NC(=O)[C@H](Cc2ccccc2)NC(=O)[C@H](CC(N)=O)NC(=O)[C@H](CCCCN)NC1=O` [somatostatin, reference compound], the “displacement of 125I-TP / receptor assay result, in words” value [2] was “no detectable displacement”.

With “ACTH: adrenocorticotropic hormone (SYSMEHFRWGKPVGKKRRPVKVYPNGAEDESAEAFPLEF; Corticotropin; UniProt P01189 138-176, looked up) [reference compound]” the “displacement of 125I-TP / receptor assay result, in words” value [2] was “no detectable displacement”.

With “Ac-RPDAY [N-α-acetyl-ARG-PRO-ASP-ALA-TYR-OH, Nα-Acetyl-Arginyl-Prolyl-Aspartyl-Alanyl-Tyrosine]” the “displacement of 125I-TP relative to that caused by thymopoietin self-displacement at equivalent concentrations” value [2] was at least 50%.

In the case of “Ac-RPDEY [N-α-acetyl-ARG-PRO-ASP-GLU-TYR-OH, N^α -Acetyl-Arginyl-Prolyl-Aspartyl-Glutamyl-Tyrosine]”, the “displacement of 125I-TP relative to that caused by thymopoietin self-displacement at equivalent concentrations” value [2] is reported as at least 50%.

For “Ac-RPDQY [N-α-acetyl-ARG-PRO-ASP-GLN-TYR-OH, Nα-acetyl-Arginyl-Prolyl-Aspartyl-Glutaminyl-Tyrosine]”, the “displacement of 125I-TP relative to that caused by thymopoietin self-displacement at equivalent concentrations” value [2] was at least 50%.

With “Ac-RPDVY [N--Acetyl-Arg--Pro--Asp--Val--Tyr--OH, Nα-Acetyl-Arginyl-Prolyl-Aspartyl-Valyl-Tyrosine]” the “Incubation time required for 50% degradation” value [4] was 38 min and the “displacement of 125I-TP relative to that caused by thymopoietin self-displacement at equivalent concentrations” value [2] was at least 50%.

In the case of “Ac-RPDVY-NH2 [N--Acetyl-Arg--Pro--Asp--Val--Tyr--NH2, N^α -acetyl-Arginyl-Prolyl-Aspartyl-Valyl-Tyrosine amide]”, the “Incubation time required for 50% degradation” value [5] is reported as over 1500 min, the “Degradation in human serum, in words” value ([4]; at 30 minutes) is reported as “no degradation” and the “Incubation time required for 50% degradation” value [3] is reported as over 1400 min. The “displacement of 125I-TP relative to that caused by thymopoietin self-displacement at equivalent concentrations” value [2] was at least 50%.

For “CRF: corticotropin-releasing factor (SEEPPISLDLTFHLLREVLEMARAEQLAQQAHSNRKLMEII; ends and bridges not checked; UniProt P06850 154-194, looked up) [reference compound]”, the “displacement of 125I-TP / receptor assay result, in words” value [2] was “no detectable displacement”.

For “RKDVY [NH2 --Arg--Lys--Asp--Val--Tyr--OH, reference compound]”, the “Incubation time required for 50% degradation” value [5] was 18 min, the “Incubation time required for 50% degradation” value [4] was 1.5 min and the half-life in serum ([6]; serum) was “approximately one”. The “Incubation time required for 50% degradation” value [3] was 15 min.

For RKEVY [Splenopentin], the “susceptibility to enzymatic degradation” value [6] was “highly susceptible to enzymatic degradation”.

With “RPDVY [NH2 --Arg--Pro--Asp--Val--Tyr--OH]” the “Incubation time required for 50% degradation” value [3] was 230 min.

With “RPDVY-NH2 [NH2 --Arg--Pro--Asp--Val--Tyr--NH2, Arginyl-Prolyl-Aspartyl-Valyl-Tyrosinamide]” the “Incubation time required for 50% degradation” value [5] was over 450 min, the “Incubation time required for 50% degradation” value [4] was over 20 min and the “displacement of 125I-TP relative to that caused by thymopoietin self-displacement at equivalent concentrations” value [2] was at least 50%.

For YRKDV [NH2 -TYR-ARG-LYS-ASP-VAL-OH], the “induction of Thy-1^+ cells (T cells)” value [7] was “no induction” and the “induction of Lyb-2.1^+ cells (B cells)” value [8] was “no induction”.

In the case of “growth hormone: comparison peptide in the receptor assay [reference compound]”, the “displacement of 125I-TP / receptor assay result, in words” value [2] is reported as “no detectable displacement”.

For ubiquitin [reference compound], the “displacement of 125I-TP / receptor assay result, in words” value [2] was “no detectable displacement”.

With “β-endorphin: comparison peptide in the receptor assay (YGGFMTSEKSQTPLVTLFKNAIIKNAYKKGE; Beta-endorphin; UniProt P01189 237-267, looked up) [reference compound]” the “displacement of 125I-TP / receptor assay result, in words” value [2] was “no detectable displacement”.
